Measured values reported in publication PMC11003488 (Journal of Enzyme Inhibition and Medicinal Chemistry, 2023).

Experiments:
CCRF-CEM = assay: NCI-60 SRB growth inhibition, one-dose and five-dose; assay type: cell-based; settings: Homo sapiens, read-out: percent growth inhibition
K-562 = assay: as above; assay type: cell-based; settings: Homo sapiens, K562, read-out: percent growth inhibition
A549/ATCC = assay: as above; assay type: cell-based; settings: Homo sapiens, A549, read-out: percent growth inhibition
HOP-62 = assay: as above; assay type: cell-based; settings: Homo sapiens, HOP-62, read-out: percent growth inhibition
HOP-92 = assay: as above; assay type: cell-based; settings: Homo sapiens, HOP-92, read-out: percent growth inhibition
NCI-H226 = assay: as above; assay type: cell-based; settings: Homo sapiens, NCI-H226, read-out: percent growth inhibition
NCI-H322M = assay: as above; assay type: cell-based; settings: Homo sapiens, read-out: percent growth inhibition
NCI-H460 = assay: as above; assay type: cell-based; settings: Homo sapiens, NCI-H460, read-out: percent growth inhibition
NCI-H522 = assay: as above; assay type: cell-based; settings: Homo sapiens, NCI-H522, read-out: percent growth inhibition
COLO 205 = assay: as above; assay type: cell-based; settings: Homo sapiens, COLO 205, read-out: percent growth inhibition
HCC-2998 = assay: as above; assay type: cell-based; settings: Homo sapiens, HCC 2998, read-out: percent growth inhibition
HCT-116 = assay: as above; assay type: cell-based; settings: Homo sapiens, HCT-116, read-out: percent growth inhibition
HCT-15 = assay: as above; assay type: cell-based; settings: Homo sapiens, HCT-15, read-out: percent growth inhibition
HT29 = assay: as above; assay type: cell-based; settings: Homo sapiens, HT-29, read-out: percent growth inhibition
SF-268 = assay: as above; assay type: cell-based; settings: Homo sapiens, SF-268, read-out: percent growth inhibition
SF-295 = assay: as above; assay type: cell-based; settings: Homo sapiens, SF-295, read-out: percent growth inhibition
SF-539 = assay: as above; assay type: cell-based; settings: Homo sapiens, SF-539, read-out: percent growth inhibition
SNB-19 = assay: as above; assay type: cell-based; settings: Homo sapiens, SNB-19, read-out: percent growth inhibition
SNB-75 = assay: as above; assay type: cell-based; settings: Homo sapiens, SNB-75, read-out: percent growth inhibition
LOX IMVI = assay: as above; assay type: cell-based; settings: Homo sapiens, read-out: percent growth inhibition
MALME-3M = assay: as above; assay type: cell-based; settings: Homo sapiens, read-out: percent growth inhibition
MDA-MB-435 = assay: as above; assay type: cell-based; settings: Homo sapiens, MDA-MB-435, read-out: percent growth inhibition
SK-MEL-2 = assay: as above; assay type: cell-based; settings: Homo sapiens, SK-MEL-2, read-out: percent growth inhibition
SK-MEL-5 = assay: as above; assay type: cell-based; settings: Homo sapiens, SK-MEL-5, read-out: percent growth inhibition
UACC-62 = assay: as above; assay type: cell-based; settings: Homo sapiens, UACC-62, read-out: percent growth inhibition
IGROV1 = assay: as above; assay type: cell-based; settings: Homo sapiens, IGROV-1, read-out: percent growth inhibition
OVCAR-3 = assay: as above; assay type: cell-based; settings: Homo sapiens, OVCAR-3, read-out: percent growth inhibition
OVCAR-4 = assay: as above; assay type: cell-based; settings: Homo sapiens, OVCAR-4, read-out: percent growth inhibition
OVCAR-5 = assay: as above; assay type: cell-based; settings: Homo sapiens, OVCAR-5, read-out: percent growth inhibition
NCI/ADR-RES = assay: as above; assay type: cell-based; settings: Homo sapiens, read-out: percent growth inhibition
786-0 = assay: as above; assay type: cell-based; settings: Homo sapiens, 786-0, read-out: percent growth inhibition
A498 = assay: as above; assay type: cell-based; settings: Homo sapiens, A498, read-out: percent growth inhibition
ACHN = assay: as above; assay type: cell-based; settings: Homo sapiens, read-out: percent growth inhibition
CAKI-1 = assay: as above; assay type: cell-based; settings: Homo sapiens, CAKI-1, read-out: percent growth inhibition
RXF 393 = assay: as above; assay type: cell-based; settings: Homo sapiens, RXF 393, read-out: percent growth inhibition
DU-145 = assay: as above; assay type: cell-based; settings: Homo sapiens, DU-145, read-out: percent growth inhibition
MCF7 = assay: as above; assay type: cell-based; settings: Homo sapiens, MCF7, read-out: percent growth inhibition
HS 578 T = assay: as above; assay type: cell-based; settings: Homo sapiens, read-out: percent growth inhibition
BT-549 = assay: as above; assay type: cell-based; settings: Homo sapiens, BT-549, read-out: percent growth inhibition
T-47D = assay: as above; assay type: cell-based; settings: Homo sapiens, T47D, read-out: percent growth inhibition
[1] = tested on: NCI 60-cell line panel (full panel); assay: NCI-60 SRB growth inhibition, full panel mean / MG-MID; assay type: cell-based, human; settings: mean over NCI-60 panel; single dose 10 µM

For CC(=O)Nc1ccc(CNc2cccc(C(=O)/C=C/c3c[nH]cn3)c2)cc1 [Compound 5l, (E)-N-(4-(((3–(3-(1H-imidazol-4-yl)acryloyl)phenyl)amino)methyl)phenyl)acetamide], the inhibition at 10 µM (CCRF-CEM) was 98%, the inhibition at 10 µM (K-562) was 80.8% and the inhibition at 10 µM (A549/ATCC) was 7.54%. The inhibition at 10 µM (HOP-62) was 5.06%, the inhibition at 10 µM (HOP-92) was 12.3% and the inhibition at 10 µM (NCI-H226) was 21.7%. It also gave an inhibition at 10 µM (NCI-H322M) of 12.8%, an inhibition at 10 µM (NCI-H460) of 4.86% and an inhibition at 10 µM (NCI-H522) of 64.2%. For the same compound, the inhibition at 10 µM (COLO 205) was -8.23%, the inhibition at 10 µM (HCC-2998) was -2.31% and the inhibition at 10 µM (HCT-116) was 29.4%. The inhibition at 10 µM (HCT-15) was 14.3%, the inhibition at 10 µM (HT29) was 8.22% and the inhibition at 10 µM (SF-268) was 19.4%. For the same compound, the inhibition at 10 µM (SF-295) was -1.21%, the inhibition at 10 µM (SF-539) was 14.1% and the inhibition at 10 µM (SNB-19) was 26.6%. The inhibition at 10 µM (SNB-75) was 11.7%, the inhibition at 10 µM (LOX IMVI) was 45.3% and the inhibition at 10 µM (MALME-3M) was 26.4%. For the same compound, the inhibition at 10 µM (MDA-MB-435) was 11%, the inhibition at 10 µM (SK-MEL-2) was 12.8% and the inhibition at 10 µM (SK-MEL-5) was 16%. For the same compound, the inhibition at 10 µM (UACC-62) was 34%, the inhibition at 10 µM (IGROV1) was 8.09% and the inhibition at 10 µM (OVCAR-3) was 33.8%. For the same compound, the inhibition at 10 µM (OVCAR-4) was 17.3%, the inhibition at 10 µM (OVCAR-5) was 5.08% and the inhibition at 10 µM (NCI/ADR-RES) was -1.58%. The inhibition at 10 µM (786-0) was 11.6%, the inhibition at 10 µM (A498) was 11.1% and the inhibition at 10 µM (ACHN) was 15.4%. It also gave an inhibition at 10 µM (CAKI-1) of 12.4%, an inhibition at 10 µM (RXF 393) of 37.7% and an inhibition at 10 µM (DU-145) of 11.1%. For the same compound, the inhibition at 10 µM (MCF7) was 81.8%, the inhibition at 10 µM (HS 578 T) was 7.6% and the inhibition at 10 µM (BT-549) was 34.9%. The inhibition at 10 µM (T-47D) was 56.9% and the “Full panel Mean GI %” value [1] was 24.10%.
